Numbers after ± are expanded uncertainties.
How the values were obtained:
[1] = xn = mol fraction of the nth substance listed; settings: 101 kPa, Liquid
[2] = relative permittivity at zero frequency (dimensionless); xn = mol fraction of the nth substance listed; settings: 101 kPa, Liquid, Dekameter
[3] = refractive index (Na D-line) (dimensionless); xn = mol fraction of the nth substance listed; settings: 101 kPa, Liquid

O=C1CCCO1 [γ-butyrolactone] + CCC(C)O
Settings | mass density [kg/m3] | refractive index | relative permittivity at zero frequency
[1], 293.15 K, x1 = 0.0564 | 820.99 ± 0.45 | – | –
[1], 293.15 K, x1 = 0.1213 | 839.11 ± 0.43 | – | –
[1], 293.15 K, x1 = 0.2541 | 877.55 ± 0.39 | – | –
[1], 293.15 K, x1 = 0.3003 | 891.34 ± 0.38 | – | –
[1], 293.15 K, x1 = 0.3895 | 918.62 ± 0.35 | – | –
[1], 293.15 K, x1 = 0.4574 | 939.95 ± 0.34 | – | –
[1], 293.15 K, x1 = 0.5005 | 953.71 ± 0.32 | – | –
[1], 293.15 K, x1 = 0.5876 | 982.13 ± 0.3 | – | –
[1], 293.15 K, x1 = 0.6442 | 1001.11 ± 0.29 | – | –
[1], 293.15 K, x1 = 0.7127 | 1024.55 ± 0.34 | – | –
[1], 293.15 K, x1 = 0.8006 | 1055.41 ± 0.41 | – | –
[1], 293.15 K, x1 = 0.8554 | 1075.08 ± 0.46 | – | –
[1], 293.15 K, x1 = 0.9262 | 1101.09 ± 0.53 | – | –
[1], 293.15 K, x1 = 0.9785 | 1120.58 ± 0.58 | – | –
[1], 298.15 K, x1 = 0.0564 | 817.52 ± 0.46 | – | –
[1], 298.15 K, x1 = 0.1213 | 835.59 ± 0.44 | – | –
[1], 298.15 K, x1 = 0.2541 | 873.9 ± 0.4 | – | –
[1], 298.15 K, x1 = 0.3003 | 887.63 ± 0.39 | – | –
[1], 298.15 K, x1 = 0.3895 | 914.8 ± 0.36 | – | –
[1], 298.15 K, x1 = 0.4574 | 936.03 ± 0.34 | – | –
[1], 298.15 K, x1 = 0.5005 | 949.73 ± 0.33 | – | –
[1], 298.15 K, x1 = 0.5876 | 978.07 ± 0.31 | – | –
[1], 298.15 K, x1 = 0.6442 | 996.91 ± 0.29 | – | –
[1], 298.15 K, x1 = 0.7127 | 1020.25 ± 0.34 | – | –
[1], 298.15 K, x1 = 0.8006 | 1050.96 ± 0.41 | – | –
[1], 298.15 K, x1 = 0.8554 | 1070.55 ± 0.45 | – | –
[1], 298.15 K, x1 = 0.9262 | 1096.44 ± 0.52 | – | –
[1], 298.15 K, x1 = 0.9785 | 1115.89 ± 0.57 | – | –
[1], 303.15 K, x1 = 0.0564 | 814 ± 0.46 | – | –
[1], 303.15 K, x1 = 0.1213 | 831.99 ± 0.44 | – | –
[1], 303.15 K, x1 = 0.2541 | 870.15 ± 0.4 | – | –
[1], 303.15 K, x1 = 0.3003 | 883.83 ± 0.39 | – | –
[1], 303.15 K, x1 = 0.3895 | 910.88 ± 0.36 | – | –
[1], 303.15 K, x1 = 0.4574 | 932.02 ± 0.34 | – | –
[1], 303.15 K, x1 = 0.5005 | 945.67 ± 0.33 | – | –
[1], 303.15 K, x1 = 0.5876 | 973.9 ± 0.31 | – | –
[1], 303.15 K, x1 = 0.6442 | 992.68 ± 0.3 | – | –
[1], 303.15 K, x1 = 0.7127 | 1015.92 ± 0.33 | – | –
[1], 303.15 K, x1 = 0.8006 | 1046.52 ± 0.4 | – | –
[1], 303.15 K, x1 = 0.8554 | 1066.03 ± 0.44 | – | –
[1], 303.15 K, x1 = 0.9262 | 1091.83 ± 0.51 | – | –
[1], 303.15 K, x1 = 0.9785 | 1111.21 ± 0.56 | – | –
[1], 313.15 K, x1 = 0.0564 | 805.57 ± 0.48 | – | –
[1], 313.15 K, x1 = 0.1213 | 823.45 ± 0.46 | – | –
[1], 313.15 K, x1 = 0.2541 | 861.53 ± 0.41 | – | –
[1], 313.15 K, x1 = 0.3003 | 875.2 ± 0.4 | – | –
[1], 313.15 K, x1 = 0.3895 | 902.14 ± 0.38 | – | –
[1], 313.15 K, x1 = 0.4574 | 923.19 ± 0.36 | – | –
[1], 313.15 K, x1 = 0.5005 | 936.83 ± 0.35 | – | –
[1], 313.15 K, x1 = 0.5876 | 964.91 ± 0.32 | – | –
[1], 313.15 K, x1 = 0.6442 | 983.59 ± 0.31 | – | –
[1], 313.15 K, x1 = 0.7127 | 1006.75 ± 0.31 | – | –
[1], 313.15 K, x1 = 0.8006 | 1037.12 ± 0.38 | – | –
[1], 313.15 K, x1 = 0.8554 | 1056.44 ± 0.43 | – | –
[1], 313.15 K, x1 = 0.9262 | 1081.97 ± 0.49 | – | –
[1], 313.15 K, x1 = 0.9785 | 1101.4 ± 0.54 | – | –
[2], 293.15 K, x1 = 0.1009 | – | – | 17.91 ± 0.06
[2], 293.15 K, x1 = 0.2112 | – | – | 19.08 ± 0.06
[2], 293.15 K, x1 = 0.3009 | – | – | 20.56 ± 0.06
[2], 293.15 K, x1 = 0.4008 | – | – | 22.53 ± 0.06
[2], 293.15 K, x1 = 0.5088 | – | – | 25.16 ± 0.06
[2], 293.15 K, x1 = 0.6003 | – | – | 27.69 ± 0.06
[2], 293.15 K, x1 = 0.7001 | – | – | 30.91 ± 0.06
[2], 293.15 K, x1 = 0.8055 | – | – | 34.66 ± 0.06
[2], 293.15 K, x1 = 0.9011 | – | – | 38.29 ± 0.06
[2], 298.15 K, x1 = 0.1009 | – | – | 16.66 ± 0.06
[2], 298.15 K, x1 = 0.2112 | – | – | 17.89 ± 0.06
[2], 298.15 K, x1 = 0.3009 | – | – | 19.48 ± 0.06
[2], 298.15 K, x1 = 0.4008 | – | – | 21.48 ± 0.06
[2], 298.15 K, x1 = 0.5088 | – | – | 24.01 ± 0.06
[2], 298.15 K, x1 = 0.6003 | – | – | 26.59 ± 0.06
[2], 298.15 K, x1 = 0.7001 | – | – | 29.67 ± 0.06
[2], 298.15 K, x1 = 0.8055 | – | – | 33.02 ± 0.06
[2], 298.15 K, x1 = 0.9011 | – | – | 37.47 ± 0.06
[2], 303.15 K, x1 = 0.1009 | – | – | 16.75 ± 0.06
[2], 303.15 K, x1 = 0.2112 | – | – | 18.21 ± 0.06
[2], 303.15 K, x1 = 0.3009 | – | – | 19.37 ± 0.06
[2], 303.15 K, x1 = 0.4008 | – | – | 21.28 ± 0.06
[2], 303.15 K, x1 = 0.5088 | – | – | 23.71 ± 0.06
[2], 303.15 K, x1 = 0.6003 | – | – | 26.26 ± 0.06
[2], 303.15 K, x1 = 0.7001 | – | – | 29.48 ± 0.06
[2], 303.15 K, x1 = 0.8055 | – | – | 33.39 ± 0.06
[2], 303.15 K, x1 = 0.9011 | – | – | 36.73 ± 0.06
[2], 313.15 K, x1 = 0.1009 | – | – | 16.09 ± 0.06
[2], 313.15 K, x1 = 0.2112 | – | – | 17.48 ± 0.06
[2], 313.15 K, x1 = 0.3009 | – | – | 18.55 ± 0.06
[2], 313.15 K, x1 = 0.4008 | – | – | 20.43 ± 0.06
[2], 313.15 K, x1 = 0.5088 | – | – | 22.86 ± 0.06
[2], 313.15 K, x1 = 0.6003 | – | – | 25.55 ± 0.06
[2], 313.15 K, x1 = 0.7001 | – | – | 28.79 ± 0.06
[2], 313.15 K, x1 = 0.8055 | – | – | 32.73 ± 0.06
[2], 313.15 K, x1 = 0.9011 | – | – | 36.05 ± 0.06
[3], 293.15 K, x1 = 0.1009 | – | 1.4004 ± 0.0012 | –
[3], 293.15 K, x1 = 0.2112 | – | 1.4009 ± 0.0012 | –
[3], 293.15 K, x1 = 0.3009 | – | 1.4021 ± 0.0012 | –
[3], 293.15 K, x1 = 0.4008 | – | 1.4043 ± 0.0012 | –
[3], 293.15 K, x1 = 0.5088 | – | 1.4076 ± 0.0012 | –
[3], 293.15 K, x1 = 0.6003 | – | 1.4112 ± 0.0013 | –
[3], 293.15 K, x1 = 0.7001 | – | 1.4162 ± 0.0013 | –
[3], 293.15 K, x1 = 0.8055 | – | 1.4221 ± 0.0013 | –
[3], 293.15 K, x1 = 0.9011 | – | 1.4285 ± 0.0013 | –
[3], 298.15 K, x1 = 0.1009 | – | 1.3976 ± 0.0012 | –
[3], 298.15 K, x1 = 0.2112 | – | 1.3978 ± 0.0012 | –
[3], 298.15 K, x1 = 0.3009 | – | 1.3986 ± 0.0012 | –
[3], 298.15 K, x1 = 0.4008 | – | 1.4005 ± 0.0012 | –
[3], 298.15 K, x1 = 0.5088 | – | 1.4036 ± 0.0012 | –
[3], 298.15 K, x1 = 0.6003 | – | 1.4071 ± 0.0013 | –
[3], 298.15 K, x1 = 0.7001 | – | 1.4119 ± 0.0013 | –
[3], 298.15 K, x1 = 0.8055 | – | 1.4175 ± 0.0013 | –
[3], 298.15 K, x1 = 0.9011 | – | 1.4236 ± 0.0013 | –
[3], 303.15 K, x1 = 0.1009 | – | 1.394 ± 0.0012 | –
[3], 303.15 K, x1 = 0.2112 | – | 1.3943 ± 0.0012 | –
[3], 303.15 K, x1 = 0.3009 | – | 1.3952 ± 0.0012 | –
[3], 303.15 K, x1 = 0.4008 | – | 1.3974 ± 0.0012 | –
[3], 303.15 K, x1 = 0.5088 | – | 1.4004 ± 0.0012 | –
[3], 303.15 K, x1 = 0.6003 | – | 1.4036 ± 0.0013 | –
[3], 303.15 K, x1 = 0.7001 | – | 1.4082 ± 0.0013 | –
[3], 303.15 K, x1 = 0.8055 | – | 1.4135 ± 0.0013 | –
[3], 303.15 K, x1 = 0.9011 | – | 1.4195 ± 0.0013 | –
[3], 313.15 K, x1 = 0.1009 | – | 1.3909 ± 0.0012 | –
[3], 313.15 K, x1 = 0.2112 | – | 1.3906 ± 0.0012 | –
[3], 313.15 K, x1 = 0.3009 | – | 1.3912 ± 0.0012 | –
[3], 313.15 K, x1 = 0.4008 | – | 1.3925 ± 0.0012 | –
[3], 313.15 K, x1 = 0.5088 | – | 1.3952 ± 0.0012 | –
[3], 313.15 K, x1 = 0.6003 | – | 1.3984 ± 0.0013 | –
[3], 313.15 K, x1 = 0.7001 | – | 1.4023 ± 0.0013 | –
[3], 313.15 K, x1 = 0.8055 | – | 1.4078 ± 0.0013 | –
[3], 313.15 K, x1 = 0.9011 | – | 1.4133 ± 0.0013 | –
